Data on four molecules can be found in PMC8550792, “Evolution of kinase polypharmacology across HSP90 drug discovery” (Cell Chemical Biology, 2021).

Assay in all cases: biochemical
Common to all, as to type: biochemical

Test [1] addresses T1, 382 unique human kinases (Homo sapiens, UniProt Q9Y2U5).
T1 construct: purchased Reaction Biology (HotSpot contract assay)
T1 sequence (Q9Y2U5 1-619): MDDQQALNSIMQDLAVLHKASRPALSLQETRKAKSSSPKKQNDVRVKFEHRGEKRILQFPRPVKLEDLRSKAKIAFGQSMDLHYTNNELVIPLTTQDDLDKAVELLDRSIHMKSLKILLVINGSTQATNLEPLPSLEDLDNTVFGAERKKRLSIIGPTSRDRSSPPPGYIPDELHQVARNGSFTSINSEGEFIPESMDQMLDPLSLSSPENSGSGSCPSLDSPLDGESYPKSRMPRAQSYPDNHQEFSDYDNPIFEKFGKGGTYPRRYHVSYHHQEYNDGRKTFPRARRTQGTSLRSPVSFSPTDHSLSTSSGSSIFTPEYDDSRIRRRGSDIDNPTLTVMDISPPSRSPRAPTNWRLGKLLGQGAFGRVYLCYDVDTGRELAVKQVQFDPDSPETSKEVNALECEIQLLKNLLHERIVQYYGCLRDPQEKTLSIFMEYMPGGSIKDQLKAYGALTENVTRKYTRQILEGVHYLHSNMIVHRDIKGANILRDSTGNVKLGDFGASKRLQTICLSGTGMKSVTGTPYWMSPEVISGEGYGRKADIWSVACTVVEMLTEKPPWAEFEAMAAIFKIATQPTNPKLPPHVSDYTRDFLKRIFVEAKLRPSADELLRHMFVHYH
Conditions: MEKK2, compound at 10 uM, duplicate values; for remaining activity at 10 µM: read-out: % Enzyme Activity (relative to DMSO controls).

For test [2], the target named is T2, 382 unique human kinases (Homo sapiens, UniProt P08922).
T2 construct: purchased Reaction Biology (HotSpot contract assay)
The following applies: ROS/ROS1, 10 uM; for remaining activity at 10 µM: read-out: % Enzyme Activity (relative to DMSO controls).

The target in test [3] is T3, 382 unique human kinases (Homo sapiens, UniProt Q12851).
T3 construct: purchased Reaction Biology (HotSpot contract assay)
T3 sequence (Q12851 1-820): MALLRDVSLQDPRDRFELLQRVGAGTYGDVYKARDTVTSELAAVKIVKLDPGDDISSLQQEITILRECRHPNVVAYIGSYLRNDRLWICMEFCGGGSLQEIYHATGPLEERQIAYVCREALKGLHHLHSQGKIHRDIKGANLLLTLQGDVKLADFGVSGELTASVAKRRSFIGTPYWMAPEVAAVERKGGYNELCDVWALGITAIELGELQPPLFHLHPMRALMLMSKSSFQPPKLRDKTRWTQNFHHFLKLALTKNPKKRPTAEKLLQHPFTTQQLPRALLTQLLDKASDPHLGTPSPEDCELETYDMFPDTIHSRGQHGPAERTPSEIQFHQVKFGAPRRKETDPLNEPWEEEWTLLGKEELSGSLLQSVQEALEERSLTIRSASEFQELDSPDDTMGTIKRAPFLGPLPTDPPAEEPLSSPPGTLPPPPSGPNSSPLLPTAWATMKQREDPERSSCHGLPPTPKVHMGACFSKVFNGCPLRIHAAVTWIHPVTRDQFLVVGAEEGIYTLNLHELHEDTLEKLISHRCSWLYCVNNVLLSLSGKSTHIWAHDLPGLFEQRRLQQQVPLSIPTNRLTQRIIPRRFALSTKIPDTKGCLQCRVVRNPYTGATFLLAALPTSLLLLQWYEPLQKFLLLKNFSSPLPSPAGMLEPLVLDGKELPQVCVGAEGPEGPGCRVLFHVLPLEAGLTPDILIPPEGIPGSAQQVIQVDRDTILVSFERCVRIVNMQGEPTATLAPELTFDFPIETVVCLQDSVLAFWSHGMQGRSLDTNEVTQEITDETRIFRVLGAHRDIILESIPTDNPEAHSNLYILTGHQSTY
The following applies: GCK/MAP4K2, 10 uM; for remaining activity at 10 µM: read-out: % Enzyme Activity (relative to DMSO controls).

Test [4] has as its target T4, 382 unique human kinases (Homo sapiens, UniProt Q16816).
T4 construct: purchased Reaction Biology (HotSpot contract assay)
The following applies: kinase PHKg1, compound 10 uM; for remaining activity at 10 µM: read-out: % Enzyme Activity (relative to DMSO controls).

Test [5] deals with T5, 382 unique human kinases (Homo sapiens, UniProt Q86Y07).
T5 construct: purchased Reaction Biology (HotSpot contract assay)
The following applies: kinase VRK2, compound 10 uM; for remaining activity at 10 µM: read-out: % Enzyme Activity (relative to DMSO controls).

The target in test [6] is T6, 382 unique human kinases (Homo sapiens, UniProt Q8TDC3).
T6 construct: purchased Reaction Biology (HotSpot contract assay)
T6 sequence (Q8TDC3 1-778): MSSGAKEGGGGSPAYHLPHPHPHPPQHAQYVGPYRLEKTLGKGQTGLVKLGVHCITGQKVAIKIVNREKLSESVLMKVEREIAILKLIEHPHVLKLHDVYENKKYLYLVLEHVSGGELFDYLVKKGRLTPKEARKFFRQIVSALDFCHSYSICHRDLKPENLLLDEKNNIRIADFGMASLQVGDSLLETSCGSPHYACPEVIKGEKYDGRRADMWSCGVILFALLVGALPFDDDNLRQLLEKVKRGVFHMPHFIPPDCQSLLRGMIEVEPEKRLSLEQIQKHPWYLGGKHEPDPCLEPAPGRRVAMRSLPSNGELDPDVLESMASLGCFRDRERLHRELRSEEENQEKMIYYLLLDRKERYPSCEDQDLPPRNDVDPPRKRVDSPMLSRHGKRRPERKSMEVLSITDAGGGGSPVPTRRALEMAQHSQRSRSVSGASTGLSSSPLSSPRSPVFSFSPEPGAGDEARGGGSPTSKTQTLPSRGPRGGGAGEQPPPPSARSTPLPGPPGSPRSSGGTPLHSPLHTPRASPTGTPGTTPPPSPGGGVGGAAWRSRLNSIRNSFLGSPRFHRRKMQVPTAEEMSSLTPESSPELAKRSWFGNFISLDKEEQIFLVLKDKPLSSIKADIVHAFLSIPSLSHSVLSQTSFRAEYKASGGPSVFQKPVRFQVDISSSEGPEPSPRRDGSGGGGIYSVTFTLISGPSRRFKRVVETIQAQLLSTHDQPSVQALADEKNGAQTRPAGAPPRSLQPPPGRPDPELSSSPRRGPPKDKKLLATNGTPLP
The following applies: kinase BRSK1, compound 10 uM; for remaining activity at 10 µM: read-out: % Enzyme Activity (relative to DMSO controls).

In test [7] the target is T7, 382 unique human kinases (Homo sapiens, UniProt Q06187, P190K).
T7 construct: purchased Reaction Biology (HotSpot contract assay)
The following applies: BTK (P190K), 10 uM; for remaining activity at 10 µM: read-out: % Enzyme Activity (relative to DMSO controls).

The target of test [8] is T8, 382 unique human kinases (Homo sapiens, UniProt Q5S007, R1441C).
T8 construct: purchased Reaction Biology (HotSpot contract assay)
Conditions: LRRK2 (R1441C), [ATP] 50 µM, compound 10 uM; for remaining activity at 10 µM: read-out: % Enzyme Activity (relative to DMSO controls).

In test [9] the target is T9, 382 unique human kinases (Homo sapiens, UniProt Q14680, T460M).
T9 construct: purchased Reaction Biology (HotSpot contract assay)
Conditions: MELK (T460M), [ATP] 20 µM, compound 10 uM; for remaining activity at 10 µM: read-out: % Enzyme Activity (relative to DMSO controls).

Test [10] deals with T10, 382 unique human kinases (Homo sapiens, UniProt P80192).
T10 construct: purchased Reaction Biology (HotSpot contract assay)
Conditions: MLK1/MAP3K9, 10 uM; for remaining activity at 10 µM: read-out: % Enzyme Activity (relative to DMSO controls).

Molecules are shown by their SMILES.

T7 sequence (Q06187 whole entry P190K): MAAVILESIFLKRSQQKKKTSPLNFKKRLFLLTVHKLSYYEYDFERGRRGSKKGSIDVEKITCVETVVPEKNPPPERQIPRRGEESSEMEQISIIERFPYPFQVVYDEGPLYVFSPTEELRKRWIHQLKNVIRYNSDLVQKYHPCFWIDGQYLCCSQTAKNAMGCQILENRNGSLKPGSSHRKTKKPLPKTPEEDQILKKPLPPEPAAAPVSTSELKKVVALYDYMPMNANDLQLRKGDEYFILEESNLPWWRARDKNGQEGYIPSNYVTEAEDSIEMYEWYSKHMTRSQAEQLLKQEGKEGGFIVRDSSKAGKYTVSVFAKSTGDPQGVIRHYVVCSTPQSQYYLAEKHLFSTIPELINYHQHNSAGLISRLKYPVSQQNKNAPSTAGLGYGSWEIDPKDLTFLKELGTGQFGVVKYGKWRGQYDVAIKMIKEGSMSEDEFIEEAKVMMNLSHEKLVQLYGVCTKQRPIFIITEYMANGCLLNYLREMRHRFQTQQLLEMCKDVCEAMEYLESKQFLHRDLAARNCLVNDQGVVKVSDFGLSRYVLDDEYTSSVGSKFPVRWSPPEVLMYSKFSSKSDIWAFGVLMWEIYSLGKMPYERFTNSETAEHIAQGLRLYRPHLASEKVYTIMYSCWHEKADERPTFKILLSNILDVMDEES
T9 sequence (Q14680 whole entry T460M): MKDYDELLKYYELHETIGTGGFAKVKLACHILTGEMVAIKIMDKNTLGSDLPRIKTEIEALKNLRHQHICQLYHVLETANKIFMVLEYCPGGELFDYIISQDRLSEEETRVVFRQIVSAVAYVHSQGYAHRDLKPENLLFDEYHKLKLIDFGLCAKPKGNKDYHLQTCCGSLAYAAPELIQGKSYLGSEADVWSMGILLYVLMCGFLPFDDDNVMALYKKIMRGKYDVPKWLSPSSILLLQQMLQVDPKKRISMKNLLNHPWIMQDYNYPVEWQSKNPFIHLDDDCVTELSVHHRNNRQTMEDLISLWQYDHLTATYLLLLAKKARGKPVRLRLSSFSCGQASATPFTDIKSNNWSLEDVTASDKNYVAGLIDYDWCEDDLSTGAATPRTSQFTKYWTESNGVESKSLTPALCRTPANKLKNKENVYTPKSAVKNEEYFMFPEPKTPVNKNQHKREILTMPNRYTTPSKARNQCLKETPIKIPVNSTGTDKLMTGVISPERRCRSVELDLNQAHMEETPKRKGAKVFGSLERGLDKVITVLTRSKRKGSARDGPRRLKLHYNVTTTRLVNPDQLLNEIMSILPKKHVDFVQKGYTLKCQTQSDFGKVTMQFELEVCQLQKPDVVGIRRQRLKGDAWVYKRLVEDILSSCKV
T5 sequence (Q86Y07 whole entry): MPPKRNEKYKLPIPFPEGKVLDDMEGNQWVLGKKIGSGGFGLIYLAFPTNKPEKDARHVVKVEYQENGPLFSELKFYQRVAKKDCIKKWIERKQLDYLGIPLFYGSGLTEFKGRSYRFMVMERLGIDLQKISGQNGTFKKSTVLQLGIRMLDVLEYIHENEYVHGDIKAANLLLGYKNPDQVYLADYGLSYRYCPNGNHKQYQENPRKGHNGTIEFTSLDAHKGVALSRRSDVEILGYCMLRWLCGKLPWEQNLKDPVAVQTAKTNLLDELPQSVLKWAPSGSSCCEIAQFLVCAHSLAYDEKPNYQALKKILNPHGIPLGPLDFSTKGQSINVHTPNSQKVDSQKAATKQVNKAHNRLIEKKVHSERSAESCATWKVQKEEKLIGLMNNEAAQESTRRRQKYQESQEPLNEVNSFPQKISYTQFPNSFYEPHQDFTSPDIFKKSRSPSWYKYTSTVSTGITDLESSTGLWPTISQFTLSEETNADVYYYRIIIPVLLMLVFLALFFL
T10 sequence (P80192 whole entry): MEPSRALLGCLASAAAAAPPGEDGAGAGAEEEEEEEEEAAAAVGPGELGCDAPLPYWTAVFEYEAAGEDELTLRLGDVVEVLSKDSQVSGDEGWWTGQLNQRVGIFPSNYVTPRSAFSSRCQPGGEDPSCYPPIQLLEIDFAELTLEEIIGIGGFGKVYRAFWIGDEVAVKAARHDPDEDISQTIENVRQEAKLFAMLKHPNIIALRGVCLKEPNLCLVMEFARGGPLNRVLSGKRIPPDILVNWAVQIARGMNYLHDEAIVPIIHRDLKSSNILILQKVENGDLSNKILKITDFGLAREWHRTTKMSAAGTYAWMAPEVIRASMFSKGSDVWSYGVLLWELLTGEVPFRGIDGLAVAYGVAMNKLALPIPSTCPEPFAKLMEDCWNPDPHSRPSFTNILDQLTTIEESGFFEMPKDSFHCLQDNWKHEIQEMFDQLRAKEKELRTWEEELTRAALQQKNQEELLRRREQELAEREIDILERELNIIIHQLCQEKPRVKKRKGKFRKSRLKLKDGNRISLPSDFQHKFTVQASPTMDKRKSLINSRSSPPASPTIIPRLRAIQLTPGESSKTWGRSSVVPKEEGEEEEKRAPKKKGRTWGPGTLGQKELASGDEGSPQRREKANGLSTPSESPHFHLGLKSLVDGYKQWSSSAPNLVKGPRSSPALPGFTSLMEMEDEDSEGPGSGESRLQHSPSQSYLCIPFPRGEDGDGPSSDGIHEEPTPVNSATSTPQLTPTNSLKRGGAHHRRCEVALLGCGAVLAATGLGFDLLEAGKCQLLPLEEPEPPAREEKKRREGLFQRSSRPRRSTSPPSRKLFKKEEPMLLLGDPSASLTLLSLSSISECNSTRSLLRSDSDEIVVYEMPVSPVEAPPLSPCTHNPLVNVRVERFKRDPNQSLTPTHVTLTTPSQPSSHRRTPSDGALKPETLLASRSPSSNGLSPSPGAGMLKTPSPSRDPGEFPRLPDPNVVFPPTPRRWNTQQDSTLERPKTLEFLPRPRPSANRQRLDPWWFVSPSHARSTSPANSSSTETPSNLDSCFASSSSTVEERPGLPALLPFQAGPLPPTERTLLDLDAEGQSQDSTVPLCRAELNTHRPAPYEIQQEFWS
T4 sequence (Q16816 whole entry): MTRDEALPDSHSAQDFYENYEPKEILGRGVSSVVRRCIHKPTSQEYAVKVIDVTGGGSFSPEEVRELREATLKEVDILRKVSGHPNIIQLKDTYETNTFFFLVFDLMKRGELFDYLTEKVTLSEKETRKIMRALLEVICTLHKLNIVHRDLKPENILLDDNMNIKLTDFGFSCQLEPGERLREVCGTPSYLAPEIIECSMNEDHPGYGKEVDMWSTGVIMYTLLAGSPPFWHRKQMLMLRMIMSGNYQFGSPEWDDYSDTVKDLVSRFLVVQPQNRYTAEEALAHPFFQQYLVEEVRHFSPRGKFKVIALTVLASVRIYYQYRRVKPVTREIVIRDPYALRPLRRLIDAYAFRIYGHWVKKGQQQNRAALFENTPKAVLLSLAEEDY

As for `CC(C)c1cc(-c2n[nH]c(=O)n2-c2ccc3c(ccn3C)c2)c(O)cc1O` [Ganetespib (STA9090)], the remaining activity at 10 µM was determined as 109% in test [1]; 70.2% in test [2]; 76% in test [3]; 88.5% in test [4]; 91.2% in [5]; 81.4% in test [6]. Further, the remaining activity at 10 µM in [7] worked out at 62.1%.
For `CC(C)c1cc(-c2n[nH]c(=O)n2-c2ccc3c(ccn3C)c2)c(O)cc1O` [Ganetespib], the remaining activity at 10 µM in [8] came to 50.7%; in test [9], 43.6%; in test [10] it was 92.1%.
As for `CCNC(=O)c1noc(-c2cc(C(C)C)c(O)cc2O)c1-c1ccc(CN2CCOCC2)cc1` [Luminespib (AUY-922)], the “% Enzyme Activity (relative to DMSO controls)” value is listed as 118.79% in [1]; 89.10% in [2]; 94.14% in test [3]; 96.94% in test [4]; 100.26% in test [5]; 99.19% in test [6]. The “% Enzyme Activity (relative to DMSO controls)” value in test [7] was found to be 61.43%. The remaining activity at 10 µM in test [1] stood at 123%; in test [2], 90.8%; in test [3] it was 97.2%; in test [4], 98.2%; in test [5], 102%; in test [6], 100%. The remaining activity at 10 µM in test [7] was determined as 61.9%.
As to `CCNC(=O)c1noc(-c2cc(C(C)C)c(O)cc2O)c1-c1ccc(CN2CCOCC2)cc1` [Luminespib], the “% Enzyme Activity (relative to DMSO controls)” value is recorded as 88.51% in [8], 72.49% in test [9] and 102.58% in test [10]. The remaining activity at 10 µM in [8] is 88.8%; in test [9], 74.9%; in test [10], 103%.
